Results taken from article PMC4838876, “Multivalent display of minimal Clostridium difficile glycan epitopes mimics antigenic properties of larger glycans” (Nature Communications, 2016).

Key:
[1] = target: mAb 10D6 (anti-PS-I IgG1); test: Kinetic SPR of glycans binding to captured mAb 10D6; set-up: species or system mouse; settings: mAb 10D6, PBS, 25 °C, mean±s.e.m. n=3 or mean (min;max) n=2
Experimental: (§1) Kinetic SPR experiments were performed to determine the binding strengths of the mAbs to PS-I glycans expressed as dissociation constants (KD)[8] (Fig. 5a). […] Overall, the SPR measurements (summarized in Table 1) confirmed results obtained by glycan microarray presented above.
Binding analyses were carried out on a Biacore T100 instrument (GE Healthcare). CM5 sensor chips were functionalized with about 10,000 RUs of α-mouse IgG capture antibody, using the Mouse Antibody Capture Kit and the Amine Coupling Kit (GE Healthcare) according to the manufacturer's recommendations. A blank-immobilized flow cell was used as reference, to compensate for nonspecific binding of antibodies or oligosaccharides to the sensor chip surface. Kinetic measurements were performed with the Biacore T100 Control software using the ‘Kinetics' function. PBS was used as running buffer and all measurements were performed at 25 °C and a flow rate of 30 μl min^−1. About 500 RUs of mAbs were captured at a concentration of 50 μg ml^−1 diluted in PBS and oligosaccharides or OAAs (in PBS) at the indicated concentrations were passed through, using the standard parameters for association and dissociation times unless mentioned otherwise. […] The fitting quality was evaluated by investigating respective residual plots, χ^2 and s.e. values for on- and off-rates. […]
All sensorgrams were recorded on a Biacore T100 instrument (GE […]

[2] = target: anti-PS-I mAbs 2C5, 10A1 and 10D6; test: Kinetic SPR, summary over the three anti-PS-I mAbs; type: binding, mouse; settings: for Kd: SPR, range over mAbs 2C5, 10A1, 10D6
Experimental: as §1
Binding analyses were carried out on a Biacore T100 instrument (GE Healthcare). CM5 sensor chips were functionalized with about 10,000 RUs of α-mouse IgG capture antibody, using the Mouse Antibody Capture Kit and the Amine Coupling Kit (GE Healthcare) according to the manufacturer's recommendations. A blank-immobilized flow cell was used as reference, to compensate for nonspecific binding of antibodies or oligosaccharides to the sensor chip surface. Kinetic measurements were performed with the Biacore T100 Control software using the ‘Kinetics' function. PBS was used as running buffer and all measurements were performed at 25 °C and a flow rate of 30 μl min^−1. About 500 RUs of mAbs were captured at a concentration of 50 μg ml^−1 diluted in PBS and oligosaccharides or OAAs (in PBS) at the indicated concentrations were passed through, using the standard parameters for association and dissociation times unless mentioned otherwise. Flow cells were regenerated with 10 mM glycine-HCl pH 1.7 for 30 s. Kinetic evaluation of binding responses was performed with the Biacore T100 Evaluation software, using reference-subtracted sensorgrams. Two different kinetic models, a 1:1 binding Langmuir model and a two-state reaction model, which assumes a conformational change in the antibody–analyte complex, were used to fit the data. The fitting quality was evaluated by investigating respective residual plots, χ^2 and s.e. values for on- and off-rates. Both models yielded similar good fittings. We chose the 1:1 binding model over the two-state reaction model to calculate on- and off-rates, as well as KD values, as this model makes fewer assumptions. When on-rates and/or off-rates were outside of the measurable ranges of the instrument, the steady-state affinity model was used instead to determine KD values. […]

| SMILES | Kd [1] [µM] | Kd [2] [µM] | fold lower KD values than minimal glycan epitope 3 ([2]; KD of 1 compared with 3) |
| --- | --- | --- | --- |
| C[C@@H]1O[C@@H](O[C@@H]2[C@@H](O)[C@H](OCCCCCN)O[C@H](CO)[C@H]2O)[C@H](O)[C@H](O)[C@H]1O [Compound 3, Rha-(1→3)-Glc] | 37.5 ± 0.4 | 5.9 to 37.5 |  |
| C[C@@H]1O[C@@H](O[C@@H]2[C@@H](O)[C@H](O[C@H]3[C@H](O[C@@H]4O[C@@H](C)[C@H](O)[C@@H](O)[C@H]4O)[C@@H](O)[C@@H](O[C@H]4[C@@H](OCCCCCN)O[C@H](CO)[C@@H](O)[C@@H]4O)O[C@@H]3CO)O[C@H](CO)[C@H]2O)[C@H](O)[C@H](O)[C@H]1O [Compound 1] | 0.169 | 0.163 to 0.245 | about 100 fold |
